The assay relates to Akkermansia muciniphila. The assay is described as follows: Effects of prebiotic compositions with different components on growth of Akkermansia muciniphila (Example 2). It counts as cell-based. The text has this:
The xylooligosaccharide used was purchased from Shandong Longlive Bio-Technology Co., Ltd. The lactitol used was purchased from Welltech Biotechnology Co., Ltd. The inulin used was purchased from Cosucra. The fructooligosaccharide used was purchased from Meiji. The grape ferment used was the grape ferment prepared in Example 1. The liquid medium used was tryptone soy broth (TSB; hereinafter referred to as TSB medium) with 5% sheep blood (purchased from BD).
The groups were divided into blank group, 5 experimental groups (experimental groups A-E) and 5 control groups (control groups A-E), as shown in Table 1.
The experimental medium used in control groups A-E included 94% TSB medium, 5% sheep blood and 1% single-component prebiotic compositions A-E, respectively; and the single-component prebiotic compositions A-E were xylooligosaccharide, lactitol, inulin, fructooligosaccharide and grape ferment, respectively. […]
1% activated Akkermansia muciniphila was respectively added to a 15 mL test tube containing 5 mL of medium of each group, and subjected to anaerobic culture at 37° C. for 48 hours. After 48 hours of culture, 100 μL of bacterial suspension was respectively taken from the test tube of each group, added to the solid TSB medium containing 5% sheep blood, and subjected to anaerobic culture at 37° C. for 72 hours, and then, the bacterial count of each group was calculated. […]

With `OC[C@@H](O)[C@@H](O[C@@H]1O[C@H](CO)[C@H](O)[C@H](O)[C@H]1O)[C@H](O)[C@@H](O)CO` [control group B, lactitol], the bacterial count (1% prebiotic composition in 94% TSB medium + 5% sheep blood, anaerobic culture at 37° C. for 48 hours, then plated 72 hours, blank group 6.50 log CFU) was 6.67 log CFU. The “effect on bacterial count/growth of Akkermansia muciniphila as compared with the blank group” value (1% prebiotic composition in medium, FIG. 1) is on record as “increased the bacterial count of Akkermansia muciniphila”.

These data come from US12048725B2, “Methods for promoting intestinal health and for enhancing antioxidation using prebiotic composition” (TCI CO., LTD., priority 2022, dated 2024).
